From PubChem BioAssay (NCI)
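Growth conditions: 96-well plates. Treatment: test compound, 48 hours, 5 concentrations. Analysis: linear interpolation between bracketing concentrations; unreached endpoints set to highest concentration. TGI: concentration producing complete growth inhibition.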

Legend:
Experiment in all cases: NCI tumour cell line growth inhibition, 48 h
A498 renal = test system: A498 renal
BT-549 breast = test system: BT-549 breast
CAKI-1 renal = test system: CAKI-1 renal
DU-145 prostate = test system: DU-145 prostate
HCT-15 colon = test system: HCT-15 colon
HOP-62 NSCLC = test system: HOP-62 NSCLC
K-562 leukemia = test system: K-562 leukemia
KM12 colon = test system: KM12 colon
M14 melanoma = test system: M14 melanoma
MCF7 breast = test system: MCF7 breast
NCI-H522 lung = test system: NCI-H522 lung
NCI/ADR-RES ovarian = test system: NCI/ADR-RES ovarian
OVCAR-4 ovarian = test system: OVCAR-4 ovarian
OVCAR-8 ovarian = test system: OVCAR-8 ovarian
SF-295 CNS = test system: SF-295 CNS
SF-539 CNS = test system: SF-539 CNS
SK-MEL-2 melanoma = test system: SK-MEL-2 melanoma
SK-MEL-5 melanoma = test system: SK-MEL-5 melanoma
SK-OV-3 ovarian = test system: SK-OV-3 ovarian
SW-620 colon = test system: SW-620 colon

| Compound | TGI (A498 renal) [µM] | TGI (BT-549 breast) [µM] | TGI (CAKI-1 renal) [µM] | TGI (DU-145 prostate) [µM] | TGI (HCT-15 colon) [µM] | TGI (HOP-62 NSCLC) [µM] | TGI (K-562 leukemia) [µM] | TGI (KM12 colon) [µM] | TGI (M14 melanoma) [µM] | TGI (MCF7 breast) [µM] | TGI (NCI-H522 lung) [µM] | TGI (NCI/ADR-RES ovarian) [µM] | TGI (OVCAR-4 ovarian) [µM] | TGI (OVCAR-8 ovarian) [µM] | TGI (SF-295 CNS) [µM] | TGI (SF-539 CNS) [µM] | TGI (SK-MEL-2 melanoma) [µM] | TGI (SK-MEL-5 melanoma) [µM] | TGI (SK-OV-3 ovarian) [µM] | TGI (SW-620 colon) [µM] |
| --- | --- | --- | --- | --- | --- | --- | --- | --- | --- | --- | --- | --- | --- | --- | --- | --- | --- | --- | --- | --- |
| CC1CC[C@@]2(OC1)OC1C[C@H]3[C@@H]4CC[C@H]5CC(OC6OC(CO)C(O)C(OC7OC(CO)C(OC8OC(CO)C(O)C(OC9OC(CO)C(O)C(O)C9O)C8OC8OC(CO)C(O)C(O)C8O)C(O)C7O)C6O)[C@H](O)CC5(C)[C@H]4CCC3(C)C1[C@@H]2C (stereo not given in full) | 3.16 | 10.5 | 11.3 | 12.1 | 19.3 | 11.3 | 12.4 | 12.2 | 17.6 | 5.43 | 5.35 | 12.5 | 9.55 | 6.67 | 9.39 | 6.76 | 9.78 | 13.6 | 14.1 | 8.32 |
| O=C(c1cccs1)N(C(=O)N1CCN(c2ccccc2)CC1)S(=O)(=O)c1ccccc1 | > 100 | 84 | 59.9 | 60.9 | 75.4 | > 100 | 80.5 | > 100 | 36 | 74.6 | 34.2 | 57.2 | > 100 | 39.5 | > 100 | 35.2 | 36.3 | 30.7 | > 100 | > 100 |
| CC(=O)Oc1ccc2c(c1)c1c(=O)oc(C)nc1n2Cc1ccccc1 | > 74.6 | > 66.3 | 34.4 | > 100 | > 100 | > 100 | > 100 | > 100 | > 100 | > 100 | 60.5 | > 100 | > 100 | > 100 | > 100 | > 100 | > 71.6 | > 100 | 98.6 | > 100 |
| CCN1CCC(O)(/C=C/c2ccc(C)cc2)C(C(=O)/C=C/c2ccc(C)cc2)C1 (stereo not given) | 24.6 | 13.7 | 8.1 | 25.2 | 16.2 | 25.9 | 6.07 | 5.16 | 9.52 | 6.36 | 3.62 | 8.03 | 23 | 7.54 | 22.9 | 10.3 | 15.9 | 9.85 | 29.1 | 3.36 |
| Cc1c(O)c(OC2OC(CO)C(O)C(O)C2O)cc2c1CC[C@@H]1C2(C)C(=O)C[C@]2(C)[C@@H]([C@@](C)(O)C(=O)CCC(C)(C)O)[C@H](O)C[C@@]12C (stereo not given in full) | > 100 | > 100 | > 100 | > 100 | > 100 | > 100 | > 100 | > 100 | > 100 | > 100 | > 100 | > 100 | > 100 | > 100 | > 100 | > 100 | > 100 | > 100 | > 100 | > 100 |
| CN1CCc2c(sc3ncn(C)c(=N)c23)C1 | > 100 | > 100 | > 100 | > 100 | > 100 | > 100 | > 100 | > 100 | > 100 | > 100 | > 100 | > 100 | > 100 | > 100 | > 100 | > 100 | > 100 | > 100 | > 100 | > 100 |
| Fc1ccc(C(=C2CCN(CCc3ccc4[nH]c(=S)[nH]c4c3)CC2)c2ccc(F)cc2)cc1 | 25 | 14.2 | 28.6 | 8.91 | 11.4 | 38.6 | > 100 | 19.1 | 2.9 | 5.94 | 3.65 | 37.3 | 12.7 | 8.26 | 18.8 | 7.74 | 7.95 | 5.74 | 36.8 | > 100 |
| c1ccc([P+](CC[P+](c2ccccc2)(c2ccccc2)c2ccccc2)(c2ccccc2)c2ccccc2)cc1 | > 100 | > 100 | > 100 | > 100 | > 100 | > 100 | > 100 | > 100 | > 100 | > 100 | > 79.5 | > 100 | > 100 | > 100 | > 100 | > 44.5 | 43.6 | 39.6 | > 100 | > 100 |
| O=C(Nc1nncs1)NS(=O)(=O)n1c(=S)sc2ccccc21 | > 100 | > 100 | > 100 | > 100 | > 100 | > 100 | > 100 | > 100 | > 100 | > 100 | > 100 | > 100 | > 100 | > 100 | > 100 | > 100 | > 100 | > 100 | > 100 | > 100 |
| CCOC(=O)CO/N=C1/C(c2c(O)[nH]c3ccccc23)=Nc2ccccc21 | 38.2 | > 100 | > 100 | > 100 | > 100 | 46 | > 100 | > 100 | > 100 | > 100 | > 100 | > 100 | 16.5 | > 100 | > 100 | > 100 | > 100 | > 100 | 49.2 | > 100 |
| O=C(Oc1cccnc1)c1cc2cc(CCl)ccc2oc1=O | > 100 | 53.7 | 35 | 39.5 | 58.5 | > 100 | 40.6 | > 100 | 53.1 | 11.3 | 35.5 | 76.6 | 60.3 | > 100 | > 100 | > 100 | 54 | > 100 | > 100 | > 100 |
| CC(=O)O[C@H]1CC[C@@]2(C)C(=CC[C@@H]3[C@@H]2CC[C@]2(C)NC(=O)/C(=C\c4ccccc4)C[C@@H]32)C1 | 27.6 | 34.2 | > 100 | 48 | 40.4 | 30.1 | > 100 | 42.7 | 30.5 | 59.8 | 31.7 | 63.1 | 43.8 | 45 | 37.5 | 31.1 | 39.8 | 23.2 | 44.3 | 41.9 |
| CC(C(=O)OCc1ccccc1)(c1ccco1)N1C(=O)OC(c2ccccc2)C1c1ccccc1 (stereo not given) | > 100 | > 100 | > 100 | > 100 | > 100 | > 100 | > 100 | > 100 | > 100 | > 100 | > 100 | > 100 | > 100 | > 100 | > 100 | > 100 | > 100 | > 100 | > 100 | > 100 |
| [N-]=[N+]=NC1C(O)C(CO)OC1n1ccc(=O)[nH]c1=O (stereo not given) | > 875 | > 875 | > 875 | > 875 | > 875 | > 875 | > 875 | > 875 | > 875 | > 875 | > 875 | > 875 | > 875 | > 875 | > 875 | > 875 | > 875 | > 875 | > 875 | > 875 |
| O=C(CCc1cc(O)ccc1O)OCCc1ccccc1 | > 100 | 26.6 | 27.2 | 41.2 | 27.2 | > 100 | 30.9 | > 80.6 | > 61.6 | 57.3 | 1.78 | > 100 | 32.5 | > 57.6 | > 100 | 14.9 | > 100 | > 55.6 | > 100 | 42.2 |
| O=C(O/C=C\OC1CCCC1(c1ccccc1)c1ccccc1)c1ccccc1 (stereo not given) | 64.3 | 4.58 | > 63.6 | 13.6 | 5.72 | 36.9 | > 36 | 33.1 | 9.08 | 6.67 | 43 | 8.99 | 9.8 | 12.1 | 34.9 | 13.5 | 15 | 23.8 | 30.5 | 11.3 |
| COc1ccc2c(c1)C(=O)OCCC2 | > 100 | > 100 | > 100 | > 100 | > 100 | > 100 | > 100 | > 100 | > 100 | > 100 | > 100 | > 100 | > 100 | > 100 | > 100 | > 100 | > 100 | > 100 | > 100 | > 100 |
| COc1cc(O)c(C(=O)/C=C/c2ccc(O)cc2)cc1Oc1ccc(/C=C/C(=O)c2ccc(O)cc2O)cc1 | 14.1 | 22.6 | 38.9 | 23.6 | 21 | 18.7 | 22.8 | 15.5 | 17.4 | 22.9 | 16 | 26.7 | 16 | 24.7 | 18.2 | 16.2 | 21.9 | 14.3 | 15.9 | 38.5 |
| O=C1C=CC(=O)c2c1ccc1c3ccccc3n(-c3cccc([N+](=O)[O-])c3)c21 | > 10 | 3.31 | 5.48 | > 10 | 7.09 | > 10 | 1.45 | > 10 | 3.86 | > 5.93 | 3.57 | > 10 | > 5.95 | > 8.25 | > 10 | > 6.82 | > 10 | > 10 | > 10 | 2.79 |
| CCCCCCOc1ccc(Nc2c(O)c3c(c(O)c2Cl)C(=O)C=CC3=O)cc1 | > 10 | > 6.01 | > 10 | > 10 | 3.68 | > 8.71 | 8.92 | > 7.66 | > 6.68 | > 4.88 | 3.98 | 6.54 | > 8.13 | > 5.31 | > 10 | > 6.06 | 7.05 | 3.02 | > 10 | 4.73 |
| CC(=O)N(CCc1ccccc1)C(C#N)c1ccccc1 (stereo not given) | > 100 | > 100 | > 100 | > 100 | > 100 | > 100 | > 100 | > 100 | > 100 | > 100 | > 100 | > 100 | > 100 | > 100 | > 100 | > 100 | > 100 | > 100 | > 100 | > 100 |
| O=c1oc2ccccc2cc1-c1cn2ccccc2n1 | 6.49 | 26.3 | 20.5 | 21 | 38.9 | 14.8 | > 52.6 | 37.2 | 28.9 | 30 | 17.3 | 11.9 | > 42.1 | 10.7 | 13.5 | 10.6 | 14.4 | 20.1 | 15.6 | 31.6 |
| COC(=O)CC1C=CC(C)(OC)OO1 (stereo not given) | > 100 | > 100 | > 100 | > 100 | > 100 | > 100 | > 100 | > 100 | > 100 | > 100 | 55.5 | > 100 | > 100 | > 100 | > 100 | > 100 | > 100 | > 100 | > 100 | > 100 |
